In general, melting point refers to the temperature, or range, at which the solid turns liquid. `c1ccc(-c2cnn3cc(-c4ccc(CCCN5CCOCC5)cc4)cnc23)cc1` [Compound 2-6, 6-[4-(3-morpholin-4-ylpropyl)phenyl]-3-phenylpyrazolo[1,5-a]pyrimidine] yielded a melting point of 147 to 149 °C.

The values above are taken from US7262199B2, “Tyrosine kinase inhibitors” (Merck & Co., Inc., priority 2002, dated 2007).
